In patent US8367678B2, “Treatment for spinal muscular atrophy” (Kaohsiung Medical University, priority 2008, dated 2013):

Assays:
Format in all cases: cell-based, Human
[1] = test system: SMN2 exon 7 splicing in SMA lymphoid cell lines; test: SMN2 exon 7-containing versus exon 7-lacking transcripts by RT-PCR and quantitative densitometry
Experimental: Human SMA lymphoid cell lines were treated with several 5-(N-ethyl-N-isopropyl)-amiloride and then the relative levels of SMN2 exon 7-containing versus exon 7-lacking transcripts by RT-PCR and quantitative densitometry (Proc Natl Acad Sci USA 2001; 98:9808-9813) were measured. Human lymphoblast cell lines were established from SMA patients with homozygous SMN1 deletion in our laboratory by Epstein-Barr virus transformation as described in Proc Natl Acad Sci USA 2001; 98:9808-9813. The cells were grown in RPMI-1640 medium supplemented with 2 mM L-glutamine, 10% fetal bovine serum (FBS), 100 units/ml penicillin and 100 μg/ml streptomycin at 37° C. in a humidified atmosphere containing 5% CO2. The SMA lymphoid cell lines derived from 6 SMA patients included 2 type I, 2 type II and 2 type III. The cells were treated with various concentrations of EIPA for 24 hours to determine the dosage effect and exposed to 10 μM of EIPA and harvested at different time intervals (2-24 hours). […] Thus, EIPA promoted SMN2 exon 7 inclusion in a dose-dependent and time-related manner in SMA cells.

[2] = test system: SMN protein in SMA lymphoid cell lines; test: SMN protein level by Western blotting and quantitative densitometry; conditions: 24 hours
Experimental: SMA lymphoid cell lines were treated with various concentrations of EIPA for 24 hours and then the level of SMN protein by Western blotting and quantitative densitometry were measured. Protein extract preparation and western blot analysis were performed essentially as described previously (Proc Natl Acad Sci USA 2001; 98:9808-9813). Briefly, proteins were resolved by SDS-PAGE and transferred to a polyvinyl difluoride membrane (Millipore). The membrane was blocked with a 5% skim milk solution and then exposed to the appropriate concentrations of primary antibodies for 1 hour at room temperature. The following primary antibodies were used: mouse monoclonal anti-SMN (BD Biosciences, 1:5,000), mouse monoclonal anti-SR 16H3 (Zymed, 1:500), mouse monoclonal anti-SRp20 (Zymed, 1:500), mouse monoclonal anti-hnRNP A 1 (Acris, 1:1000), mouse monoclonal anti-hnRNP A2/B1 (Acris, 1:1000), mouse monoclonal anti-Sam68 (Santa Cruz, 1:500), mouse monoclonal anti-SF2/ASF (Zymed, 1:2000), mouse monoclonal anti-Akt (Cell Signaling, 1:1000), mouse monoclonal anti-phosphorylated Akt (Cell Signaling, 1:1000), mouse monoclonal anti-α-tubulin (Abeam, 1:5000), and mouse monoclonal anti-β-tubulin (Santa Cruz, 1:2000). After washing with TBST (0.05% Tween 20 in TBS), the membrane was incubated for 1 hour with a secondary antibody at a 1:2500 dilution and then detected by ECL chemiluminescence kit (Amersham). Intensity of the signals was measured using LabWorks software (UVP). Referring to FIG. 2, in the cytoplasm, the SMN protein level of EIPA-treated SMA cell was 1.8-, 1.4-, and 2.6-fold higher than untreated cell lines. In the nucleus, the SMN protein level at 2, 10 and 50 μM EIPA was 2.2-, 2.0-, and 3.3-fold higher than untreated cell lines.

[3] = test system: SRp20 in SMA lymphoid cell lines; test: Levels of SR and hnRNP proteins by Western blotting and quantitative densitometry; conditions: 10 μM EIPA (FIG. 3)
Experimental: SMA lymphoid cell lines were treated with various concentrations of EIPA for 24 hours and then the level of SMN protein by Western blotting and quantitative densitometry were measured. Protein extract preparation and western blot analysis were performed essentially as described previously (Proc Natl Acad Sci USA 2001; 98:9808-9813). Briefly, proteins were resolved by SDS-PAGE and transferred to a polyvinyl difluoride membrane (Millipore). The membrane was blocked with a 5% skim milk solution and then exposed to the appropriate concentrations of primary antibodies for 1 hour at room temperature. […] After washing with TBST (0.05% Tween 20 in TBS), the membrane was incubated for 1 hour with a secondary antibody at a 1:2500 dilution and then detected by ECL chemiluminescence kit (Amersham). Intensity of the signals was measured using LabWorks software (UVP). […]
SMA lymphoid cell lines were treated with EIPA and then the change in the levels of several SR and hnRNP proteins by Western blotting and quantitative densitometry was examined. The protein levels in cytoplasmic and nuclear fractions were also measured separately in order to gain information about subcellular distribution. […]

[4] = test system: SMA lymphoid cells; test: Intracellular pH by cytofluorometric SNARF-1 measurement; conditions: 4 hours, untreated control about 7.40
Experimental: Thus, the intracellular pH lowering and cytotoxic effects of EIPA on SMA lymphoid cells were determined. The procedures of cytofluorometric measurement were modified from a published method (J Cell Physiol 1998; 177:109-122). Briefly, three million SMA lymphoid cells were treated with 0, 2, or 10 μM of EIPA in 3 ml of growth medium for 4 hours in a 37° C. CO2 incubator, washed in PBS and then incubated in PBS containing 5 μM of carboxy SNARF-1 AM, acetate (Molecular Probes) for 30 minutes at 37° C., also in the absence or presence of 2 or 10 μM EIPA. The SNARF-1 loaded cells collected by 200×g 10 minutes centrifugation were divided into 7 aliquots, 5 for the calibration standard curves and 2 for sample reading. […] The aliquots for sample reading were suspended in hepes-buffered pH 7.1 and pH 7.4 K^+-BSS, without or with EIPA addition, but in the absence of nigericin. After standing in the darkness at room temperature for 20 minutes, the SNARF-1 fluorescence measurement was performed in a cytofluorometer (FACSAria BD Biosciences) by excitation at 488 nm and fluorescent emissions at 580 (FL-2) and 640 nm (FL-3). The cytofluorometric data was analyzed by using FACSDiVa and CellQuest software to gate the major viable cell populations for producing a standard curve of the 640/580 nm fluorescence ratios (y-axis) versus the high-K BSS buffer pHs (x-axis) of nigericin-treated cells. […]

[5] = test system: SMA lymphoid cells; test: Cell viability by trypan blue dye exclusion; conditions: 24 hours
Experimental: (§1) 2.5×10^5 lymphoid cells/0.5-ml/well in a 12-well dish were exposed to 0, 2, 5, 10, 20 or 50 μM of EIPA. Viability was determined by trypan blue dye exclusion at 24 hours. To determine the cell growth effect of EIPA, 2.5×10^5 lymphoid cells/0.5-ml/well in a 12-well dish were exposed to 0, 2, 5, 10, 20 or 50 μM of EIPA. 0.5-ml of fresh medium (without or with the same EIPA addition) was added at 72 hours and cell counts made at 120 hours. Referring to FIG. 6A, the cell viability remained at above 90% after treatment of 20 μM (or lower) EIPA for 24 hours, but was down to 60% in 50 WA EIPA medium. Additionally, Referring to FIG. 6B, from a dose response curve of 120 hours in vitro cultures, it was estimated that 8 μM of EIPA cause 50% growth inhibition of SMA lymphoid cells.

[6] = test system: SMA lymphoid cells; test: Cell growth assay (cell counts at 120 hours); conditions: 120 hours in vitro cultures, from dose response curve; read-out: concentration causing 50% growth inhibition of SMA lymphoid cells
Experimental: as §1

CCN(c1nc(N)c(C(=O)N=C(N)N)nc1Cl)C(C)C [EIPA, 5-(N-ethyl-N-isopropyl)-amiloride]
ratio of SMN2 exon 7-containing to exon 7-lacking transcripts ([1]; 2 μM EIPA, 24 hours, SMA lymphoid cell lines): increased significantly
ratio of SMN2 exon 7-containing to exon 7-lacking transcripts ([1]; 10 μM EIPA, 24 hours, SMA lymphoid cell lines): increased significantly
ratio of SMN2 exon 7-containing to exon 7-lacking transcripts ([1]; 10 μM EIPA, at 4 hours after the treatment): significantly increased
ratio of SMN2 exon 7-containing to exon 7-lacking transcripts ([1]; 50 μM EIPA, 24 hours, SMA lymphoid cell lines): increased significantly
SMN protein level in the cytoplasm versus untreated cell lines ([2]; first listed concentration (2 μM EIPA)): 1.8 fold
SMN protein level in the cytoplasm versus untreated cell lines ([2]; second listed concentration (10 μM EIPA)): 1.4 fold
SMN protein level in the cytoplasm versus untreated cell lines ([2]; third listed concentration (50 μM EIPA)): 2.6 fold
SMN protein level in the nucleus versus untreated cell lines ([2]; 2 μM EIPA): 2.2 fold
SMN protein level in the nucleus versus untreated cell lines ([2]; 10 μM EIPA): 2.0 fold
SMN protein level in the nucleus versus untreated cell lines ([2]; 50 μM EIPA): 3.3 fold
increase of the level of SRp20 in the nucleus [3]: approximately 4 fold
intracellular pH (pHi) ([4]; 2 μM EIPA): 7.15±0.10
intracellular pH (pHi) ([4]; 10 μM EIPA): 7.03±0.15
cell viability ([5]; 20 μM (or lower) EIPA): above 90%
cell viability ([5]; 50 μM EIPA medium): 60%
IC50 [6]: ~8 µM
